Tested on: 953936-095-R-J2-PDC spheroids with HUVEC/MSC, viability
Assay: Anticancer human tumor 953936-095-R-J2-PDC patient-derived cervical squamous cell carcinoma cell line growth inhibition [PI3K]
Conditions: for IC50: curve of first compound; for viability, T/C: stronger effect = lower value
Description: Combinatorial screen of targeted agents with the PI3K inhibitors inavolisib, alpelisib, duvelisib, and copanlisib in multi-cell type tumor spheroids
A high-throughput screen of multi-cell type tumor spheroids was designed to identify active combinations of targeted small molecules and PI3K pathway inhibitors. Complex spheroids include a stromal component modeled by human endothelial cells (HUVEC) and fibroblasts modeled by human mesenchymal stem cells (MSCs). The concentration ranges selected for each drug and investigational agent were based upon clinically achievable concentrations if the clinical Cmax of the agent was known.
Compounds. The drugs and investigational agents: inavolisib (NSC800729), alpelisib (NSC765974), duvelisib (NSC772469), copanlisib (NSC816437), ipatasertib (NSC767898), afuresertib (NSC778305), talazoparib (NSC767125), sapanisertib (NSC764658), selumetinib (NSC741078), tovorafenib (DAY101, NSC766906), vemurafenib (NSC761431), ravoxertinib (NSC781343), sotorasib (NSC818433), MRTX1133 (NSC 836407), abemaciclib (NSC 768073), palbociclib (NSC758247), venetoclax (NSC 766270), SY5609 (NSC837396), enzalutamide (NSC755605), and darolutamide (NSC825331), were obtained from the National Cancer Institute (NCI) Developmental Therapeutics Program Chemical Repository. The FDA-approved anticancer drug set is available from the NCI Developmental Therapeutics Program. […] The stock solutions were prepared in dimethyl sulfoxide (DMSO, Sigma-Aldrich, St. Louis, MO, cat. D2650) at 800-fold the tested concentration and stored at -70 degrees C prior to their use. All drugs and investigational agents were tested over a range starting from a high concentration at or near the clinical Cmax and decreasing in half-log increments. If the clinical Cmax for an agent had not been determined, the highest concentration tested was 10 microM.
Cell Culture. All cells were maintained in an incubator at 37 degrees C and 5% CO2 with 95% humidity. The PDC lines were cultured according to standard operating procedures established by the NCI PDMR (https://pdmr.cancer.gov/sops/default.htm). All PDCs were thawed and cultured in Matrigel-coated flasks prepared with a working solution of 1X Ham's F-12 nutrient mix, without supplementation (Invitrogen, Waltham, MA, cat. 11765054), 100 U/mL penicillin-streptomycin (Invitrogen, cat. 15140122), and 2.5% Matrigel (Corning Inc., Corning, NY, cat. 354248) for the first three passages. The 354836-022-R-J1-PDC, 475296-252-R-J1-PDC, and 997726-040-R-J2-PDC lines were cultured in 6A media, which includes advanced DMEM/F-12 (Thermo Fisher Scientific, cat. 12634028), 10 mM HEPES (Thermo Fisher Scientific, cat. 15630080), 1X GlutaMAX supplement (Thermo Fisher Scientific, cat. 35050061), 0.1 mg/mL primocin (InvivoGen, San Diego, CA, cat. ant-pm-2), 10% defined fetal bovine serum, heat inactivated (HyClone Laboratories Inc., Logan, UT, cat. SH30070.03HI), 50% L-WRN conditioned media (ATCC, cat. CRL-3276), 1.25 mM N-Acetyl-L-cysteine (Sigma-Aldrich, cat. A9165), 10 mM nicotinamide (Sigma-Aldrich, cat. N0636), 1X B-27 supplement (Thermo Fisher Scientific, cat. 17504044), 1X N-2 supplement (Thermo Fisher Scientific, cat. 17502048), and 10 microM Y-27632 dihydrochloride (Tocris Bioscience, Bristol, United Kingdom, cat. 1254). The 624824-186-R-J2-PDC line was cultured in 6C/Colon 1B media, which includes all 6A media components plus 50 ng/mL human EGF recombinant protein (Thermo Fisher Scientific, cat. PHG0311). […]

[1] = second compound 0.00316 µM, first compound 0.0316 µM
[2] = second compound 0.00316 µM, first compound 0.1 µM
[3] = second compound 0.01 µM, first compound 0.0316 µM
[4] = second compound 0.01 µM, first compound 0.1 µM
[5] = second compound 0.0316 µM, first compound 0.0316 µM
[6] = second compound 0.0316 µM, first compound 0.1 µM
[7] = second compound 0.1 µM, first compound 0.0316 µM
[8] = second compound 0.1 µM, first compound 0.1 µM
[9] = second compound 0.316 µM, first compound 0.0316 µM
[10] = second compound 0.316 µM, first compound 0.1 µM
[11] = second compound 1 µM, first compound 0.0316 µM
[12] = second compound 1 µM, first compound 0.1 µM
[13] = second compound 0.00316 µM, first compound 0.316 µM
[14] = second compound 0.00316 µM, first compound 1 µM
[15] = second compound 0.00316 µM, first compound 3.16 µM
[16] = second compound 0.00316 µM, first compound 10 µM
[17] = second compound 0.01 µM, first compound 0.316 µM
[18] = second compound 0.01 µM, first compound 1 µM
[19] = second compound 0.01 µM, first compound 3.16 µM
[20] = second compound 0.01 µM, first compound 10 µM
[21] = second compound 0.0316 µM, first compound 0.316 µM
[22] = second compound 0.0316 µM, first compound 1 µM
[23] = second compound 0.0316 µM, first compound 3.16 µM
[24] = second compound 0.0316 µM, first compound 10 µM
[25] = second compound 0.1 µM, first compound 0.316 µM
[26] = second compound 0.1 µM, first compound 1 µM
[27] = second compound 0.1 µM, first compound 3.16 µM
[28] = second compound 0.1 µM, first compound 10 µM
[29] = second compound 0.316 µM, first compound 0.316 µM
[30] = second compound 0.316 µM, first compound 1 µM
[31] = second compound 0.316 µM, first compound 3.16 µM
[32] = second compound 0.316 µM, first compound 10 µM
[33] = second compound 1 µM, first compound 0.316 µM
[34] = second compound 1 µM, first compound 1 µM
[35] = second compound 1 µM, first compound 3.16 µM
[36] = second compound 1 µM, first compound 10 µM
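Note: spheroids exposed to compounds for seven days before read-out.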

`CC(C)n1nc(-c2ccc3oc(N)nc3c2)c2c(N)ncnc21` + CC(Nc1ccc2c(c1)OCCn1cc(N3C(=O)OCC3C(F)F)nc1-2)C(N)=O gave an IC50 (second compound 0.00316 µM) of 27.5 nM, an IC50 (second compound 0.01 µM) of 23.1 nM and an IC50 (second compound 0.0316 µM) of 14.2 nM. It also gave an IC50 (second compound 0.1 µM) of 1.4 nM, an IC50 (second compound 0.316 µM) of less than 0.316 nM and an IC50 (second compound 1 µM) of less than 0.316 nM. For the same molecule, the viability, T/C (second compound 0.00316 µM, first compound 0.000316 µM) was 92.9%, the viability, T/C (second compound 0.00316 µM, first compound 0.001 µM) was 93.3% and the viability, T/C (second compound 0.00316 µM, first compound 0.00316 µM) was 81.3%. For the same molecule, the viability, T/C (second compound 0.00316 µM, first compound 0.01 µM) was 73.7%, the viability, T/C [1] was 46.2% and the viability, T/C [2] was 15.5%. It also gave a viability, T/C (second compound 0.01 µM, first compound 0.000316 µM) of 87.1%, a viability, T/C (second compound 0.01 µM, first compound 0.001 µM) of 88.8% and a viability, T/C (second compound 0.01 µM, first compound 0.00316 µM) of 79.1%. It also gave a viability, T/C (second compound 0.01 µM, first compound 0.01 µM) of 67.6%, a viability, T/C [3] of 43.6% and a viability, T/C [4] of 15.2%. The viability, T/C (second compound 0.0316 µM, first compound 0.000316 µM) was 73%, the viability, T/C (second compound 0.0316 µM, first compound 0.001 µM) was 71.9% and the viability, T/C (second compound 0.0316 µM, first compound 0.00316 µM) was 73.4%. For the same molecule, the viability, T/C (second compound 0.0316 µM, first compound 0.01 µM) was 53.5%, the viability, T/C [5] was 35.7% and the viability, T/C [6] was 12.1%. The viability, T/C (second compound 0.1 µM, first compound 0.000316 µM) was 57.7%, the viability, T/C (second compound 0.1 µM, first compound 0.001 µM) was 52.5% and the viability, T/C (second compound 0.1 µM, first compound 0.00316 µM) was 44.3%. The viability, T/C (second compound 0.1 µM, first compound 0.01 µM) was 34%, the viability, T/C [7] was 21.6% and the viability, T/C [8] was 7.99%. The viability, T/C (second compound 0.316 µM, first compound 0.000316 µM) was 34.1%, the viability, T/C (second compound 0.316 µM, first compound 0.001 µM) was 31.2% and the viability, T/C (second compound 0.316 µM, first compound 0.00316 µM) was 28.5%. It also gave a viability, T/C (second compound 0.316 µM, first compound 0.01 µM) of 22.7%, a viability, T/C [9] of 13.1% and a viability, T/C [10] of 6.47%. For the same molecule, the viability, T/C (second compound 1 µM, first compound 0.000316 µM) was 20.8%, the viability, T/C (second compound 1 µM, first compound 0.001 µM) was 21.7% and the viability, T/C (second compound 1 µM, first compound 0.00316 µM) was 18.3%. It also gave a viability, T/C (second compound 1 µM, first compound 0.01 µM) of 16.3%, a viability, T/C [11] of 9.69% and a viability, T/C [12] of 5.32%.
For `CC1(C)CCC(CN2CCN(c3ccc(C(=O)NS(=O)(=O)c4ccc(NCC5CCOCC5)c([N+](=O)[O-])c4)c(Oc4cnc5[nH]ccc5c4)c3)CC2)=C(c2ccc(Cl)cc2)C1` + CC(Nc1ccc2c(c1)OCCn1cc(N3C(=O)OCC3C(F)F)nc1-2)C(N)=O, the IC50 (second compound 0.00316 µM) was 6920 nM, the IC50 (second compound 0.01 µM) was 8420 nM and the IC50 (second compound 0.0316 µM) was 8120 nM. The IC50 (second compound 0.1 µM) was greater than 10000 nM, the IC50 (second compound 0.316 µM) was less than 31.6 nM and the IC50 (second compound 1 µM) was less than 31.6 nM. For the same molecule, the viability, T/C [1] was 88.4%, the viability, T/C [2] was 89.8% and the viability, T/C [13] was 90.4%. It also gave a viability, T/C [14] of 100%, a viability, T/C [15] of 142% and a viability, T/C [16] of 25.5%. For the same molecule, the viability, T/C [3] was 90.2%, the viability, T/C [4] was 88.9% and the viability, T/C [17] was 92.3%. The viability, T/C [18] was 93.6%, the viability, T/C [19] was 115% and the viability, T/C [20] was 41.9%. It also gave a viability, T/C [5] of 77%, a viability, T/C [6] of 74.6% and a viability, T/C [21] of 75.8%. It also gave a viability, T/C [22] of 75.8%, a viability, T/C [23] of 85% and a viability, T/C [24] of 44%. For the same molecule, the viability, T/C [7] was 57.7%, the viability, T/C [8] was 53% and the viability, T/C [25] was 53.1%. It also gave a viability, T/C [26] of 59.4%, a viability, T/C [27] of 59.5% and a viability, T/C [28] of 48.3%. For the same molecule, the viability, T/C [9] was 35.7%, the viability, T/C [10] was 36% and the viability, T/C [29] was 33.5%. The viability, T/C [30] was 31.8%, the viability, T/C [31] was 32.5% and the viability, T/C [32] was 36.9%. For the same molecule, the viability, T/C [11] was 22.3%, the viability, T/C [12] was 24.4% and the viability, T/C [33] was 21.2%. For the same molecule, the viability, T/C [34] was 22.1%, the viability, T/C [35] was 22.1% and the viability, T/C [36] was 21.7%.
`C[C@@H](NC(=O)c1ncnc(N)c1Cl)c1ncc(C(=O)Nc2cc(C(F)(F)F)c(Cl)cn2)s1` + CC(Nc1ccc2c(c1)OCCn1cc(N3C(=O)OCC3C(F)F)nc1-2)C(N)=O showed an IC50 (second compound 0.00316 µM) greater than 10000 nM, an IC50 (second compound 0.01 µM) greater than 10000 nM and an IC50 (second compound 0.0316 µM) greater than 10000 nM. It also gave an IC50 (second compound 0.1 µM) greater than 10000 nM, an IC50 (second compound 0.316 µM) of less than 31.6 nM and an IC50 (second compound 1 µM) of less than 31.6 nM. For the same molecule, the viability, T/C [1] was 98.6%, the viability, T/C [2] was 103% and the viability, T/C [13] was 101%. For the same molecule, the viability, T/C [14] was 104%, the viability, T/C [15] was 113% and the viability, T/C [16] was 97.7%. For the same molecule, the viability, T/C [3] was 97.2%, the viability, T/C [4] was 89.3% and the viability, T/C [17] was 102%. For the same molecule, the viability, T/C [18] was 99.5%, the viability, T/C [19] was 107% and the viability, T/C [20] was 121%. For the same molecule, the viability, T/C [5] was 78.6%, the viability, T/C [6] was 74.3% and the viability, T/C [21] was 78.2%. The viability, T/C [22] was 90.8%, the viability, T/C [23] was 93.9% and the viability, T/C [24] was 85.2%. It also gave a viability, T/C [7] of 55.6%, a viability, T/C [8] of 56.5% and a viability, T/C [25] of 61.2%. It also gave a viability, T/C [26] of 61.5%, a viability, T/C [27] of 67.8% and a viability, T/C [28] of 53.2%. For the same molecule, the viability, T/C [9] was 37.2%, the viability, T/C [10] was 34.8% and the viability, T/C [29] was 38.3%. For the same molecule, the viability, T/C [30] was 39.8%, the viability, T/C [31] was 40.8% and the viability, T/C [32] was 41.9%. For the same molecule, the viability, T/C [11] was 23%, the viability, T/C [12] was 26.8% and the viability, T/C [33] was 25.3%. The viability, T/C [34] was 27.2%, the viability, T/C [35] was 27.7% and the viability, T/C [36] was 24.8%.

Reference: PubChem BioAssay AID1963971 (Molecular Pharmacology Branch, DTP, NCI, 2024)
